Laboratory results taken from US10175256B2, “Compositions and methods utilizing lysophosphatidylcholine scaffolds” (National University Of Singapore, priority 2013, dated 2019).
Several values for one entry are separate records, joined by “and”; a condition that tells them apart may be missing. Equal entries are not always repeated. Entries after “also recorded” stand apart in the source; their conditions may differ. Values belong to the molecule of their own block, whether it stands above or below them.

Tests used:
[1] = target: T1, mouse Mfsd2a (Mus musculus, UniProt Q9DA75); test: TLC analysis of phospholipids (bio-incorporation of LPC into PC); type: cell-based; details: HEK293 cells, 50 μM, TLC
T1 construct: expressed in transfected cells; host or cells: HEK293
T1 sequence (Q9DA75 1-534): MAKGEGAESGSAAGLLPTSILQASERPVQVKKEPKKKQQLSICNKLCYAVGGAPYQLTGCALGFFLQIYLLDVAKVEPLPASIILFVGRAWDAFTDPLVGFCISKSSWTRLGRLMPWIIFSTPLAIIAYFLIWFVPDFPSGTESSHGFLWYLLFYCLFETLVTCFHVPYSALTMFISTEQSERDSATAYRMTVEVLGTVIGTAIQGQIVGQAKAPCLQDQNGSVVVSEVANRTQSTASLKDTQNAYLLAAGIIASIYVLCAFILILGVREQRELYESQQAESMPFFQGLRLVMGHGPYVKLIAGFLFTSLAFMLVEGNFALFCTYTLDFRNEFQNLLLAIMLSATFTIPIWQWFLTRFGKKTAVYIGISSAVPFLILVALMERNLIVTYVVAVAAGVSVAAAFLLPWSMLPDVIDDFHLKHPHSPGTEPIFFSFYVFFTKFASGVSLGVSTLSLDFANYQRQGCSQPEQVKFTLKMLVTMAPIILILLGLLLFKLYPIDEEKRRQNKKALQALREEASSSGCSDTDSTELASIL
Experimental: HEK293 cells overexpressing with pcDNA3.1Mfsd2a (WT), pcDNA3.1Mfsd2aD92A (D92A), pcDNA3.1Mfsd2aD96A, or pcDNA3.1 (mock) plasmids or human Mfsd2a (in Sport6 plasmid) were washed once with serum-free DMEM medium before incubation with 50 μM radiolabeled LPC [^14C]oleate, LPC [^14C]DHA or with 50 μM TopFluor-LPC and NBD-LPC. Lipids were extracted twice with HIP buffer for 30 mins. Lipids were dried with nitrogen stream and reconstituted in chloroform and spotted on TLC plates (Milipore). Solvent for phospholipid separation was chloroform/methanol/ammonia solution (25%) (50:25:6, per volume). TLC plates of radiolabeled phospholipids were dried for 30 mins and exposed overnight to Phosphorscreens and scanned with Typhoon FLA 9000 scanner (Agilent). TLC plates of fluorescent phospholipids were scanned with Typhoon FLA 9000 scanner and quantified using Imagequant software.

[2] = target: T1, mouse Mfsd2a; test: In vitro transport (uptake) of radiolabeled and fluorescent LPCs in HEK293 cells overexpressing Mfsd2a; type: cell-based; details: HEK293 cells; vs mock, D92A, D96A
Experimental: Uptake assays of radiolabeled LPCs or fluorescent LPCs were tested using HEK293 cells overexpressing Mfsd2a and mutants constructs. Briefly, HEK293 cells at 90-95% confluency were transfected using LIPOFECTAMINE 2000 (Invitrogen) with pcDNA3.1Mfsd2a (WT), pcDNA3.1Mfsd2aD92A (D92A), pcDNA3.1Mfsd2aD96A (D96A), or pcDNA3.1 (mock) plasmids. Uptake assays were performed after 24 hours of transfections. Prior to ligand incubation, HEK293 transfected cells were washed with serum-free DMEM before assays. For concentration and time dependent assays, radiolabeled LPCs were diluted in pre-warmed DMEM media. For sodium dependent assay, radiolabeled LPCs were diluted in transport buffer (5 mM KCl, 10 mM Hepes, pH 7.4) with 150 mM NaCl or 150 mM choline chloride. For sodium concentration dependent assays, any reductions in the concentration of NaCl were replaced by choline chloride in order to maintain a constant cation molarity of 150 mM. All assays were performed in 12 well-plates with triplicates and at 37° C.

[3] = target: T2, Mfsd2a (Mus musculus, UniProt Q9DA75); test: In vivo transport of radiolabeled, fluorescent LPCs and unesterified DHA in Mfsd2a KO and wild-type mice; design: from tissue; host or cells: living mice; brain (blood-brain barrier endothelium), liver, heart; fetal brain
T2 sequence (Q9DA75 1-534): T1 sequence (Q9DA75 1-534)
Experimental: Male and female mice of age of 6-8 weeks were IV injected with 75 μl of 20 mM radiolabeled LPC-[…], 100 μl of 10 mM LPC-[^14C]DHA/BSA complex or 82 μl of 12.2 mM [^14C]DHA/BSA complex in a total volume of 150 μl of phosphate-buffered saline. At 2 hours post injection, mice were anesthetized and perfused for 5 mins with PBS containing 0.5% BSA in order to remove blood and lipid tracer bound to the brain vasculature. Tissues were harvested for lipid extraction. For lipid extraction, tissues were weighed and similar amounts of tissues were homogenized in chloroform/methanol. Lipids from the organic phase were mixed with scintillant and scintillation counted. Similar experiments were also performed with an injection of 300 μg NBD-LPC/BSA or 300 μg TopFluor-LPC/BSA complex per mouse. In this experiment, mice were perfused for 5 mins with PBS followed 15 mins perfusion with 4% paraformaldehyde (PFA) for tissue fixation. Brain sections of WT and KO with a thickness of 40 μm were prepared and scanned using green fluorescence mode in Typhoon FLA 9000 scanner (Agilent). NBD-LPC accumulation was expressed as fluorescence of each section per its area. Dietary DHA transport from mother to fetus was also measured using [^14C]DHA/BSA complex. Pregnant females at e18.5 was gavaged with bolus of [^14C]DHA/BSA complex (200 μl of 10 mM [^14C]DHA/BSA/mouse). Brain of fetuses were collected 20 hours post-gavage and weighed. Lipid extraction and radioactivity were performed as described above.

[4] = target: T2, Mfsd2a; test: Dietary DHA transport from mother to fetus (fetal brain uptake); type: in vivo, mice; design: from tissue; host or cells: living mice; brain (blood-brain barrier endothelium), liver, heart; fetal brain
Experimental: FIG. 21. […] Heterozygous female mice were gavaged with 100 ul DHA oil (containing 26% DHA triglyceride and 6% EPA, total omega-3 is 35%) every 2 days for 2 weeks prior to conception in crosses with KO males. […] The rationale for using HET and KO intercrosses was to increase the yield of KO mice in this rescue study. During gestation, pregnant mice were continued on gavages of DHA every 2 days. Gavages of mothers continued during breastfeeding and pups were weaned onto normal diet at 3 weeks of age and gavaged every 2 days with DHA for 8 weeks. a, brain weight of adult WT (n=4) and KO (n=4) mice aged 8 weeks after treatment with dietary DHA oil. […] To test this possibility, pregnant het mothers intercrossed to KO fathers at e17.5-e19.5, were gavaged with [^14C]DHA and uptake into fetal brains were quantified. […] Data are expressed as mean±SEM. *P<0.05. ***P<0.001.
Male and female mice of age of 6-8 weeks were IV injected with 75 μl of 20 mM radiolabeled LPC-[…], 100 μl of 10 mM LPC-[^14C]DHA/BSA complex or 82 μl of 12.2 mM [^14C]DHA/BSA complex in a total volume of 150 μl of phosphate-buffered saline. […] Lipids from the organic phase were mixed with scintillant and scintillation counted. […] Brain sections of WT and KO with a thickness of 40 μm were prepared and scanned using green fluorescence mode in Typhoon FLA 9000 scanner (Agilent). […]

[5] = system: mouse Mfsd2a; test: Cell-based free fatty acid transport/uptake in Mfsd2a expressing HEK293 cells (mass spectrometry, TLC; Table 1); details: mock HEK293 cells
Procedure, shortened: (§1)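 HEK293 cells expressing mouse Mfsd2a, or mock controls, were incubated overnight with 100 μM BSA-complexed fatty acids. Lipids were extracted in hexane:isopropanol (3:2) and phospholipid species quantified by HPLC-MS/MS against spiked internal standards. For TLC, cells received 100 μM [^14C]-oleate overnight, and phospholipids and neutral lipids were resolved.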

[6] = target: T1, mouse Mfsd2a; test: as above; details: for % DHA in PC + lysoPC / % DHA in PE + lysoPE / % DHA in PI and lysoPI / % DHA in PS: Mfsd2a expressing HEK293 cells
Procedure, shortened: as §1

[7] = 100 uM Arachidonic fatty acid/BSA overnight
[8] = 100 uM Eicosapentaenoic fatty acid/BSA overnight
[9] = 100 uM Docosahexaenoic acid/BSA overnight
[10] = 100 uM Eicosapentaenoic acid/BSA overnight
[11] = 100 uM Linoleic fatty acid/BSA overnight
[12] = 100 uM Oleic fatty acid/BSA overnight
[13] = 100 uM Alpha-linolenic fatty acid/BSA overnight, replicate columns

Structure (SMILES): C[N+](C)(C)CCOP(=O)([O-])OC[C@H](O)COC(=O)CCCCCCCCCCCNc1ccc([N+](=O)[O-])c2nonc12 [NBD-LPC]
bio-incorporation of fluorescent LPC into phospholipids (PC) [1]: bio-incorporated into membrane phospholipids
uptake/transport of fluorescent lysolipid by cells expressing wild-type Mfsd2a [2]: transported by Mfsd2a; also recorded: significantly enhanced uptake activity
brain uptake (fluorescence of brain sections) in KO compared with wild-type ([3]; 300 μg fluorescent LPC/BSA complex i.v.): significantly reduced

brain uptake by KO embryos compared to wild-type embryos ([4]; e18.5, maternal gavage): dramatically reduced
reduction in fetal brain uptake, KO relative to het ([4]; pregnant het mothers gavaged at e17.5-e19.5): 80%
transport of unesterified fatty acid by Mfsd2a ([6]; HEK293 cells, 100 μM fatty acid/BSA overnight): did not transport
% DHA in PE + lysoPE [6, 7]: 7.284% and 8.765% and 7.721% and 8.735%
% DHA in PE + lysoPE [6, 8]: 18.3299% and 16.89% and 16.6% and 16.53%
% DHA in PE + lysoPE [6, 9]: 26.88% and 25.05% and 25.61% and 24.93%
% DHA in PE + lysoPE [6, 12]: 10.39% and 10.24% and 9.206% and 11.33%
brain uptake in KO mice relative to wild-type ([3]; i.v. injection, 2 hrs post-injection, radiolabel): not reduced
brain uptake, unesterified DHA compared with LPC-DHA ([3]; wild-type brain, same amount injected i.v., 2 hrs): significantly lower
Structure (SMILES): CCC=CCC=CCC=CCC=CCC=CCC=CCC[14C](=O)O [[^14C]DHA, [1-^14C]docosahexaenoic acid, reference compound]
% DHA in PC + lysoPC [5, 7]: 0.09113% and 0.09288% and 0.09495%
% DHA in PE + lysoPE [5, 7]: 8.696% and 8.987% and 7.919%
% DHA in PI and lysoPI [5, 7]: 0.01273% and 0.01321% and 0.01121%
% DHA in PE + lysoPE [5, 8]: 15.99% and 18.52% and 17.73%
% DHA in PI and lysoPI [5, 8]: 0.03815% and 0.04977% and 0.04803%
% DHA in PS [5, 8]: 0.1841% and 0.2258% and 0.1957%
% DHA in PC + lysoPC [5, 9]: 0.4237% and 0.3234% and 0.432%
% DHA in PE + lysoPE [5, 9]: 26.43% and 26.89% and 27.48%
% DHA in PI and lysoPI [5, 9]: 0.204% and 0.2547% and 0.2244%
% DHA in PS [5, 9]: 0.5491% and 0.6402% and 0.653%
% DHA in PC + lysoPC [5, 10]: 0.1385% and 0.1469% and 0.1528%
% DHA in PE + lysoPE [5, 11]: 9.697% and 10.5% and 10.2%
% DHA in PI and lysoPI [5, 11]: 0.01565% and 0.01716% and 0.01581%
% DHA in PS [5, 11]: 0.1596% and 0.1455% and 0.1427%
% DHA in PC + lysoPC [5, 12]: 0.04427% and 0.04402% and 0.04911%
% DHA in PE + lysoPE [5, 12]: 10.41% and 11.83% and 10.1%
% DHA in PI and lysoPI [5, 12]: 0.01286% and 0.01294% and 0.01231%
% DHA in PC + lysoPC [6, 13]: 0.2353% and 0.2194% and 0.2422% and 0.2191%
% DHA in PE + lysoPE [6, 13]: 13.49% and 15.19% and 13.82% and 14.8475%
% DHA in PI and lysoPI [6, 13]: 0.05995% and 0.06331% and 0.07073% and 0.06627%
% DHA in PS [6, 13]: 0.1602% and 0.1425% and 0.1723% and 0.1454%
% DHA in PC + lysoPC [6, 7]: 0.08166% and 0.07964% and 0.09753% and 0.09194%
% DHA in PI and lysoPI [6, 7]: 0.01388% and 0.01389% and 0.0161% and 0.01507%
% DHA in PS ([6]; 100 uM Arachidonic fatty acid/BSA overnight, replicate columns): 0.1231% and 0.1085% and 0.1181% and 0.1151%
% DHA in PI and lysoPI [6, 8]: 0.048% and 0.05677% and 0.0498% and 0.05152%
% DHA in PS [6, 8]: 0.2062% and 0.2182% and 0.1861% and 0.2178%
% DHA in PC + lysoPC ([6]; 100 uM Linoleic fatty acid/BSA overnight, replicate columns): 0.06735% and 0.06556% and 0.06667% and 0.06486%
% DHA in PC + lysoPC [6, 9]: 0.4167% and 0.3839% and 0.3923% and 0.3416%
% DHA in PI and lysoPI [6, 9]: 0.2363% and 0.1967% and 0.2348% and 0.1831%
% DHA in PS [6, 9]: 0.4937% and 0.5293% and 0.485% and 0.4533%
% DHA in PC + lysoPC [6, 10]: 0.1577% and 0.1414% and 0.143% and 0.141%
% DHA in PE + lysoPE [6, 11]: 10.0396% and 9.979% and 10.14% and 10.29%
% DHA in PI and lysoPI [6, 11]: 0.01746% and 0.01513% and 0.01522% and 0.01521%
% DHA in PS [6, 11]: 0.1229% and 0.1239% and 0.1343% and 0.1145%
% DHA in PC + lysoPC [6, 12]: 0.04304% and 0.04054% and 0.04274% and 0.04139%
% DHA in PI and lysoPI [6, 12]: 0.01405% and 0.01452% and 0.01424% and 0.01275%
